Publication PMC4907692, “Engineering vanilloid-sensitivity into the rat TRPV2 channel” (eLife, 2016)

Target: T1, 1D4-tagged WT TRPV2 (Rattus norvegicus, UniProt Q9WUD2)
T1 construct: made in house; host or cells: S. cerevisiae BJ5457, isolated membranes
T1 sequence (Q9WUD2 1-761): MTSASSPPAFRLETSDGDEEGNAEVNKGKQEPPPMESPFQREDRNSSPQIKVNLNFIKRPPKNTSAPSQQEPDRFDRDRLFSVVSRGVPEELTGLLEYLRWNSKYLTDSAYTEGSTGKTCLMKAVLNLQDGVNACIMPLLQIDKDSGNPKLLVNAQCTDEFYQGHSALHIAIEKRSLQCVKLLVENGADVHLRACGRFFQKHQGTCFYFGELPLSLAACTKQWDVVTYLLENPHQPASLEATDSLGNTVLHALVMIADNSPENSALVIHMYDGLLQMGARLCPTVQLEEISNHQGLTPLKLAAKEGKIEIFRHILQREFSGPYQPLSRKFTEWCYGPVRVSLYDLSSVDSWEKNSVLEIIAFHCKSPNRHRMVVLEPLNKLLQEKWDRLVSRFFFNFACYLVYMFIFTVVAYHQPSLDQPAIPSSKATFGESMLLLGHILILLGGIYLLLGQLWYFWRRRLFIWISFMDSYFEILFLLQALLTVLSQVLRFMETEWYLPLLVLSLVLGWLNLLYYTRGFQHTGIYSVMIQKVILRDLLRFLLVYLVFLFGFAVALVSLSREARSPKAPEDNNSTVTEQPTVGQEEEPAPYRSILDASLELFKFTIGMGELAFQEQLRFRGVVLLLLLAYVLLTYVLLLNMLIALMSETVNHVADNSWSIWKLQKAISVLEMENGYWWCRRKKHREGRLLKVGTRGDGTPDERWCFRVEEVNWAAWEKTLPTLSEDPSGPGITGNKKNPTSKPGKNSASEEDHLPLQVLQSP
Assay: 3H-RTx binding to yeast membranes containing 1D4-tagged WT TRPV2
Text: To examine the strength of RTx binding to the TRPV2 channel, we undertook binding assays after expressing 1D4-tagged TRPV2 and TRPV2 QM in S. cerevisiae and isolating yeast membranes, similar to the experiments described above with TRPV1 (Figure 2). […] To examine the relative importance of the four residues for mediating RTx sensitivity in the TRPV2 QM, we constructed triple mutants and evaluated their sensitivity to RTx electrophysiologically.
The full-length TRPV1 and TRPV2 channels with 1D4 affinity tags ([…]) on their C-termini were cloned into the YEpHIS vector and expressed in the BJ5457 strain of S. cerevisiae using the strong constitutively active PMA1 promoter, as previously described ([Moiseenkova-Bell et al., 2008]). After 48 hr of expression at 30°C in YPD media, cells were harvested by centrifugation and re-suspended in PBS buffer, supplemented with complete protease inhibitor cocktail (Roche, Indianapolis, IN) and 4-amidinophenylmethanesulfonyl fluoride hydrochloride (APMSF) (Sigma-Aldrich, St. Louis, MO). Cells were broken by passing through an Avestin homogenizer at the pressure of 35 kpsi, cell lysate was cleared by centrifugation at 8,000 g for 15 min and membranes were isolated by ultracentrifugation at 190,000 g for 1 hr. […]
S. cerevisiae cells overexpressing TRPV1 constructs to be used in ligand binding assays on intact cells (Figure 1E,F) were grown as for small scale expression trials. 24 hr after protein induction cells were spun down at 4000g, the supernatant was removed and the pellet resuspended in 1x PBS, normalizing OD600 to 75 for each sample, and aliquoted for storage at -80°C. ^3H-RTx binding assays on cells were performed at 37°C as previously described ([Feng et al., 2015]), but where non-specific binding of RTx was measured using cells expressing GFP alone. […] Data for binding of RTx to membranes was corrected for non-specific binding, determined using either excess non-radioactive ligand or heat inactivation of the protein, as previously described ([Feng et al., 2015]). […]

## C=C(C)[C@]12C[C@@H](C)[C@@]34O[C@](Cc5ccccc5)(O[C@@H]1[C@@H]3C=C(COC(=O)Cc1ccc(O)c(OC)c1)C[C@]1(O)C(=O)C(C)=C[C@@H]41)O2 [RTx, resiniferatoxin]
  RTx binding in words: weak binding
37°C
  Hill slope (nH): 0.9
37°C, read-out: Kd of 3H-RTx binding (Hill fit)
  Kd: > 0.2 µM
